The record followed here is US8058243B2, “Method for treating a brain cancer with ifenprodil” (HSC Research and Development Limited Partnership, priority 2006, dated 2011).

Read-outs that look alike come from different tables or passages of the source.

For this assay, the system named is murine neural precursor cells (neurosphere cultures). Put plainly: HTS of LOPAC library against secondary neurosphere cultures, MTT proliferation assay at 3 μM, day 7 (z score, P value). In kind it is cell-based, mouse.
Setting [1] is: LOPAC library screen at 3 μM, MTT, secondary neurosphere cultures, screened in singlets.
[2] abbreviates: primary LOPAC screen, 3 μM, MTT, neurosphere proliferation.
Setting [3] is: yes/no: significantly inhibited neurosphere proliferation in the primary screen.
The mark [4] stands for this setting: yes/no: significantly inhibited neurosphere proliferation in primary screen.
[5] abbreviates: LOPAC screen, neurosphere MTT proliferation, 3 μM, day 7.
Setting [6] is: yes/no: significantly inhibited neurosphere proliferation (P<0.01) in primary screen.
[7] abbreviates: LOPAC library screen, 3 μM, MTT, secondary neurosphere cultures, day 7.
Where [8] appears, read: LOPAC primary screen, neurosphere MTT proliferation, 3 μM, day 7.
Where [9] appears, read: yes = significantly inhibited neurosphere proliferation (P<0.01) in the primary screen.
Setting [10] is: LOPAC library screen, 3 μM, MTT, neurosphere cultures.
Where [11] appears, read: yes/no: significantly inhibited neurosphere proliferation (P<0.01) in the primary screen.

As for `CC(C)CN(C)c1nc(N)c(C(=O)N=C(N)N)nc1Cl` [5-(N-Methyl-N-isobutyl)amiloride], under setting [1], the “Z Score” value is recorded as 1.871. For the same compound, the Z score under setting [2] is recorded as 1.871. The Activity entry under setting [3] is on record as “no”.
As to `Cl.NCCCCC(=O)O` [5-Aminovaleric acid hydrochloride], under “168 h, 3 µM”, the “Z Score” value is on record as −1.67 and the Z score is listed as −1.670. Also, the Activity entry under setting [4] is “no”.
With `O=c1[nH]c(=O)n([C@H]2C[C@H](O)[C@@H](CO)O2)cc1Br` [5-Bromo-2′-deoxyuridine], the Z score under setting [5] is 2.580. For the same compound, the Activity result under setting [6] is “no”.
In the case of `NCCc1c[nH]c2ccc(C(N)=O)cc12.O=C(O)/C=C\C(=O)O` [5-Carboxamidotryptamine maleate], the “Z Score” value under setting [1] is on record as 1.667. The same compound showed a Z score under setting [5] of 1.667. In addition, under setting [6], the Activity result is on record as “no”.
As for `O=C(O)c1cc2cc(F)ccc2[nH]1` [5-Fluoroindole-2-carboxylic acid], the “Z Score” value is reported as −0.007549 and the Z score is recorded as −0.008.
On to `O=c1[nH]cc(F)c(=O)[nH]1` [5-Fluorouracil], for which the “Z Score” value under setting [7] is on record as −7.749. Also, the Z score under setting [8] was −7.749. In addition, under setting [9], the Activity result was “yes”.
For `N[C@@H](Cc1c[nH]c2ccc(O)cc12)C(=O)O` [5-Hydroxy-L-tryptophan], the “Z Score” value under setting [10] came to 0.03011. This compound also came in with a Z score under setting [8] of 0.030. Moreover, the Activity result under setting [6] is “no”.
With `O=C(O)Cc1c[nH]c2ccc(O)cc12` [5-Hydroxyindolacetic acid], the “Z Score” value under setting [7] is −1.301. The compound also yielded a Z score under setting [8] of −1.301. The Activity result under setting [6] was “no”.
`O=C(O)c1cc([N+](=O)[O-])ccc1NCCCc1ccccc1` [5-Nitro-2-(3-phenylpropylamino)benzoic acid]: under “168 h, 3 µM”, the “Z Score” value is given as −0.7343 and the Z score was −0.734. Besides, under setting [9], the Activity entry is listed as “no”.
As to `Nc1ncn([C@@H]2O[C@H](CO)[C@@H](O)[C@H]2O)c(=O)n1` [5-azacytidine], under setting [7], the “Z Score” value is −1.398. This compound also showed a Z score under setting [2] of −1.398. Moreover, under setting [3], the Activity entry is given as “no”.
On to `C[C@H]1O[C@@H](n2cc(F)c(=O)[nH]c2=O)[C@H](O)[C@@H]1O` [5-fluoro-5′-deoxyuridine], for which the “Z Score” value under setting [10] came to 0.3787. The Z score under setting [8] is 0.379. Further, under setting [6], the Activity result is given as “no”.
For the compound `CCCCCC(O)CCCC(=O)O.[Na]` (stereo not drawn) [5-hydroxydecanoic acid sodium], for the setting “168 h, 3 µM”, the “Z Score” value worked out at 0.2332 and the Z score was 0.233. Further, the Activity entry under setting [6] is “no”.
Compound `C[C@]12CC[C@@H](O)C[C@@H]1CC[C@@H]1[C@@H]2CC[C@]2(C)[C@@H](O)CC[C@@H]12` [5alpha-Androstane-3alpha,17beta-diol] gave a Z score under setting [2] of −0.381. Also, under setting [3], the Activity result is listed as “no”.
Take `C[C@]12CC[C@@H](O)C[C@@H]1CC[C@@H]1[C@@H]2CC[C@]2(C)[C@@H](O)CC[C@@H]12` [5alpha-Androstane-3alpha, 17beta-diol]: the “Z Score” value is listed as −0.3811.
As to `CC(=O)[C@H]1CC[C@H]2[C@@H]3CC[C@H]4C[C@H](O)CC[C@]4(C)[C@H]3C(=O)C[C@]12C` [5alpha-Pregnan-3alpha-ol-11,20-dione], the “Z Score” value is reported as −0.8078. The same compound had a Z score under setting [8] of −0.808.
Regarding `CC(=O)[C@H]1CC[C@H]2[C@@H]3CC[C@H]4C[C@H](O)CC[C@]4(C)[C@H]3CC[C@]12C` [5alpha-Pregnan-3alpha-ol-20-one], the “Z Score” value is on record as 0.9335. For the same compound, under setting [8], the Z score is 0.934. The Activity result under setting [4] is reported as “no”.
As for `Nc1ncnc2c1ncn2[C@@H]1O[C@H](C(=O)NC2CC2)[C@@H](O)[C@H]1O` [5′-(N-Cyclopropyl)carboxamidoadenosine], the “Z Score” value is listed as −1.701. The compound further gave a Z score under setting [5] of −1.701. The Activity entry under setting [6] was “no”.
Consider `CCNC(=O)[C@H]1O[C@@H](n2cnc3c(N)ncnc32)[C@H](O)[C@@H]1O` [5′-N-Ethylcarboxamidoadenosine], for which the “Z Score” value under setting [7] was −2.587. The compound further had a Z score under setting [8] of −2.587. The Activity entry under setting [11] is “yes”.
In the case of `CNC(=O)[C@H]1O[C@@H](n2cnc3c(N)ncnc32)[C@H](O)[C@@H]1O` [5′-N-Methyl carboxamidoadenosine], the “Z Score” value was −2.582. For the same compound, the Z score under setting [8] is recorded as −2.582. The Activity entry under setting [11] is reported as “yes”.
As for `O=c1[nH]c2ccccc2c2ccccc12` [6(5H)-Phenanthridinone], under “168 h, 3 µM”, the “Z Score” value is listed as 0.6765 and the Z score came to 0.677. Further, the Activity entry under setting [4] was “no”.
In the case of `Br.NC1CCc2cc(O)c(O)cc2C1` (stereo not drawn) [6,7-ADTN hydrobromide], under setting [10], the “Z Score” value came to 0.357. The same compound returned a Z score under setting [5] of 0.357. For the same compound, the Activity result under setting [6] is listed as “no”.
For `O=C1N=c2cc(Cl)c(Cl)cc2=NC1=O` [6,7-Dichloroquinoxaline-2,3-dione], under setting [10], the “Z Score” value was found to be 0.1274. Besides, under setting [5], the Z score came to 0.127. The Activity entry under setting [6] was “no”.
As to `NCCCCCC(=O)O` [6-Aminohexanoic acid], the Activity result is on record as “no”, the “Z Score” value is on record as −2.179 and the Z score is −2.179.
Turning to `COc1cc2c(CCNC(C)=O)c[nH]c2cc1Cl` [6-Chloromelatonin], the “Z Score” value under setting [7] is on record as −1.659. Also, the Z score under setting [5] is −1.659. Also, the Activity entry under setting [6] is reported as “no”.
As for `Cl.NCC(O)c1cc(O)c(O)cc1F` (stereo not drawn) [6-Fluoronorepinephrine hydrochloride], the “Z Score” value is on record as −1.168. Under setting [5], this compound showed a Z score of −1.168. Moreover, under setting [6], the Activity result is listed as “no”.
Consider `COc1cc2c(CCNC(C)=O)c[nH]c2cc1O` [6-Hydroxymelatonin], for which the “Z Score” value under setting [10] was 0.3767. This compound also showed a Z score under setting [8] of 0.377. Further, the Activity result under setting [6] is “no”.
Regarding `Cc1cccc(C#Cc2ccccc2)n1.Cl` [6-Methyl-2-(phenylethynyl)pyridine hydrochloride], for the setting “168 h, 3 µM”, the “Z Score” value was found to be 0.09366 and the Z score turned out to be 0.094. Under setting [9], the Activity result is reported as “no”.
As to `O=Nc1ccc2oc(=O)ccc2c1` [6-Nitroso-1,2-beazopyrone], the “Z Score” value amounted to 0.01132.
On to `O=Nc1ccc2oc(=O)ccc2c1` [6-Nitroso-1,2-benzopyrone], for which the Z score under setting [8] was 0.011. Besides, under setting [9], the Activity result was “no”.
In the case of `Oc1cc(-c2ccccc2)nc2nc(Cl)ccc12` [7-Chloro-4-hydroxy-2-phenyl-1,8-naphthyridine], where the note is “168 h, 3 µM”, the “Z Score” value is reported as −0.401 and the Z score was −0.401. Under setting [6], the Activity entry is on record as “no”.
Consider `O=C(O)c1cc(O)c2ccc(Cl)cc2n1` [7-Chlorokynurenic acid], for which the “Z Score” value came out at 1.241. The same compound had a Z score under setting [5] of 1.241. Also, under setting [6], the Activity result is on record as “no”.
`O=[N+]([O-])c1cccc2cn[nH]c12` [7-Nitroindazole (34), 7-Nitroindazole, reference compound]: the “Z Score” value is −1.349. Under setting [8], this compound had a Z score of −1.349. Besides, the Activity result under setting [9] is given as “no”.
With `Cn1c(=O)c2c(nc(C=Cc3cccc(Cl)c3)n2C)n(C)c1=O` [8-(3-Chlorostyryl)caffeine], where the note is “168 h, 3 µM”, the “Z Score” value was −1.214 and the Z score is −1.214. The Activity result under setting [6] is given as “no”.
Take `Cn1c(=O)c2[nH]c(-c3ccc(S(=O)(=O)O)cc3)nc2n(C)c1=O` [8-(p-Sulfophenyl)theophylline]: under “168 h, 3 µM”, the “Z Score” value is listed as 1.047 and the Z score was 1.047. In addition, the Activity result under setting [3] was “no”.
On to `Nc1nc2c(nc(Br)n2[C@@H]2O[C@@H]3COP(=O)([O-])O[C@H]3[C@H]2O)c(=O)[nH]1.[Na+]` [8-Bromo-cGMP sodium], for which the “Z Score” value is given as −1.005. Further, under setting [2], the Z score was −1.005. Moreover, the Activity result under setting [3] was “no”.
For the compound `Cn1c(=O)c2[nH]c(C3CCCC3)nc2n(C)c1=O` [8-Cyclopentyl-1,3-dimethylxanthine], where the note is “168 h, 3 µM”, the “Z Score” value is reported as −0.1248 and the Z score is recorded as −0.125. In addition, the Activity entry under setting [6] is on record as “no”.
The corresponding values for `CCCn1c(=O)c2[nH]c(C3CCCC3)nc2n(CCC)c1=O` [8-Cyclopentyl-1,3-dipropylxanthine] are −0.07021, −0.070 and “no”.
On to `COCc1nc2c([nH]1)c(=O)n(C)c(=O)n2CC(C)C` [8-Methoxymethyl-3-isobutyl-1-methylxanthine], for which the “Z Score” value (LOPAC library screen at 3 μM, secondary neurosphere cultures, MTT) is given as −0.3403. In addition, the Z score under setting [8] is on record as −0.340. Further, the Activity entry under setting [9] is given as “no”.
For `Cl.Nc1c2c(nc3ccccc13)CCCC2` [9-Amino-1,2,3,4-tetrahydroacridine hydrochloride], the Activity entry is listed as “no”, the “Z Score” value was −1.021 and the Z score is reported as −1.021.
Consider `Nc1ncnc2c1ncn2C1CCCC1` [9-cyclopentyladenine], for which, where the note is “168 h, 3 µM”, the “Z Score” value was 0.4988 and the Z score is recorded as 0.499. Besides, the Activity result under setting [6] is “no”.
Turning to `CCN(CC)C(C)C(=O)N1c2ccccc2Sc2ccccc21.Cl` (stereo not drawn) [10-(alpha-Diethylaminopropionyl)-phenothiazine hydrochloride], the “Z Score” value was −1.545.
`CCN(CC)C(C)C(=O)N1c2ccccc2Sc2ccccc21` (stereo not drawn) [10-(alpha-Diethylaminopropionyl)-phenothiazine]: the Z score under setting [8] is on record as −1.545. Moreover, the Activity entry under setting [11] was “no”.
Turning to `CC1=C(/C=C/C(C)=C/C=C/C(C)=C\C(=O)O)C(C)(C)CCC1` [13-cis-retinoic acid], the “Z Score” value under setting [7] is recorded as −1.469. Under setting [8], this compound gave a Z score of −1.469. Moreover, the Activity entry under setting [11] is on record as “no”.
